In the NIST ThermoML archive (doi:10.1016/j.jct.2016.09.022):
Numbers after ± are expanded uncertainties.

Key:
[1] = refractive index (Na D-line) (dimensionless); settings: 298.15 K; 101.33 kPa; Liquid; Standard Abbe refractometry
[2] = Liquid; for speed of sound: Frequency=1.5 MHz, Single path-length method; for mass density: 298.15 K, 101.33 kPa, Vibrating tube method

CCCCCCCC [octane]
Settings | mass density [kg/m3] | refractive index
[1] | – | 1.3951 ± 0.0028
[2] | 698.4 ± 1.4 | –

speed of sound [m/s], [2]
Settings | 283.15 K | 293.15 K | 303.15 K | 313.15 K | 323.15 K | 333.15 K | 343.15 K
100 kPa | 1234.6 ± 2.5 | 1193.7 ± 2.5 | 1151.8 ± 2.4 | 1112.1 ± 2.3 | 1071.1 ± 2.2 | 1030.9 ± 2.1 | 990.7 ± 2.1
5100 kPa | 1267.1 ± 2.9 | 1227.9 ± 2.8 | 1187.6 ± 2.8 | 1149 ± 2.8 | 1110.4 ± 2.7 | 1072.4 ± 2.7 | 1034.3 ± 2.7
10100 kPa | 1296.9 ± 2.9 | 1259.5 ± 2.8 | 1221 ± 2.8 | 1183.4 ± 2.8 | 1146.1 ± 2.7 | 1110.1 ± 2.7 | 1074.2 ± 2.6
20100 kPa | 1353.6 ± 3 | 1317.2 ± 2.9 | 1282.1 ± 2.9 | 1247.3 ± 2.8 | 1212.3 ± 2.8 | 1178.2 ± 2.7 | 1145 ± 2.7
30100 kPa | 1405.7 ± 3 | 1370.4 ± 3 | 1336.8 ± 2.9 | 1303.8 ± 2.9 | 1271.6 ± 2.8 | 1239.8 ± 2.8 | 1208.7 ± 2.8
40100 kPa | 1453.5 ± 3.1 | 1419.6 ± 3 | 1388.1 ± 3 | 1356.4 ± 2.9 | 1325.3 ± 2.9 | 1295 ± 2.9 | 1265.9 ± 2.8
50100 kPa | 1498 ± 3.2 | 1465.6 ± 3.1 | 1435.5 ± 3.1 | 1405.1 ± 3 | 1375.2 ± 3 | 1346.2 ± 2.9 | 1318 ± 2.9
60100 kPa | 1539.8 ± 3.2 | 1508.4 ± 3.2 | 1480 ± 3.1 | 1450.7 ± 3.1 | 1421.8 ± 3 | 1393.9 ± 3 | 1367.8 ± 2.9
70100 kPa | 1579.8 ± 3.3 | 1549 ± 3.2 | 1521.7 ± 3.2 | 1493.2 ± 3.1 | 1465.5 ± 3.1 | 1438.5 ± 3 | 1412.8 ± 3
80100 kPa | 1619 ± 3.4 | 1587.3 ± 3.3 | 1561.4 ± 3.3 | 1533.6 ± 3.2 | 1506.6 ± 3.2 | 1480.2 ± 3.1 | 1455.5 ± 3.1
90100 kPa | 1652.4 ± 3.4 | 1623.9 ± 3.4 | 1598.9 ± 3.3 | 1571.9 ± 3.3 | 1545.7 ± 3.2 | 1519.8 ± 3.2 | 1496 ± 3.1
95100 kPa | 1670.7 ± 3.5 | 1641.8 ± 3.4 | 1617 ± 3.4 | 1590.2 ± 3.3 | 1564.5 ± 3.3 | 1539 ± 3.2 | 1515.2 ± 3.2

CCCO [propan-1-ol]
Settings | mass density [kg/m3] | refractive index
[1] | – | 1.383 ± 0.0028
[2] | 799.5 ± 1.6 | –

speed of sound [m/s], [2]
Settings | 283.15 K | 293.15 K | 303.15 K | 313.15 K | 323.15 K | 333.15 K | 343.15 K
100 kPa | 1260.3 ± 2.5 | 1223.5 ± 2.5 | 1189.2 ± 2.4 | 1155.3 ± 2.4 | 1121.7 ± 2.3 | 1088.3 ± 2.2 | 1054.4 ± 2.1
5100 kPa | 1287.8 ± 2.8 | 1252.2 ± 2.8 | 1219.6 ± 2.7 | 1186.7 ± 2.7 | 1153.8 ± 2.6 | 1122.2 ± 2.6 | 1090.2 ± 2.6
10100 kPa | 1313.7 ± 2.8 | 1279.6 ± 2.8 | 1248.2 ± 2.7 | 1216.4 ± 2.7 | 1184.6 ± 2.7 | 1153.7 ± 2.6 | 1123.4 ± 2.6
20100 kPa | 1362.3 ± 2.9 | 1330 ± 2.9 | 1300.9 ± 2.8 | 1271.4 ± 2.8 | 1241.7 ± 2.7 | 1212.8 ± 2.7 | 1183.9 ± 2.7
30100 kPa | 1407.9 ± 3 | 1377 ± 2.9 | 1349.1 ± 2.9 | 1320.6 ± 2.8 | 1293 ± 2.8 | 1265.9 ± 2.8 | 1239.2 ± 2.7
40100 kPa | 1450.3 ± 3 | 1420.8 ± 3 | 1394.3 ± 2.9 | 1366.8 ± 2.9 | 1340.2 ± 2.9 | 1314.2 ± 2.8 | 1289.2 ± 2.8
50100 kPa | 1490.2 ± 3.1 | 1461.7 ± 3 | 1436.6 ± 3 | 1410.1 ± 3 | 1384.6 ± 2.9 | 1359.7 ± 2.9 | 1335.5 ± 2.8
60100 kPa | 1527.4 ± 3.2 | 1500.3 ± 3.1 | 1476.2 ± 3.1 | 1450.6 ± 3 | 1426.4 ± 3 | 1402.2 ± 2.9 | 1379 ± 2.9
70100 kPa | 1563.2 ± 3.2 | 1537.2 ± 3.2 | 1513.7 ± 3.1 | 1489.5 ± 3.1 | 1465.1 ± 3 | 1441.9 ± 3 | 1419.9 ± 3
80100 kPa | 1597.2 ± 3.3 | 1572.1 ± 3.2 | 1549.5 ± 3.2 | 1525.9 ± 3.1 | 1502.3 ± 3.1 | 1479.3 ± 3.1 | 1458.2 ± 3
90100 kPa | 1630 ± 3.3 | 1605.3 ± 3.3 | 1583.6 ± 3.2 | 1560.4 ± 3.2 | 1537.5 ± 3.2 | 1515.2 ± 3.1 | 1497.2 ± 3.1
95100 kPa | 1645.7 ± 3.4 | 1621.6 ± 3.3 | 1600.1 ± 3.3 | 1577.2 ± 3.2 | 1554.4 ± 3.2 | 1532.6 ± 3.2 | 1512.2 ± 3.1
